Assay results published in PMC4869175, “Evidence that phytochrome functions as a protein kinase in plant light signalling” (Nature Communications, 2016).
Substitutions are numbered along the chain they refer to. Names may count otherwise.

B1: Avena sativa phytochrome A, full-length wild type (natural protein, UniProt P06593 1-1129, looked up)
chain: MSSSRPASSSSSRNRQSSQARVLAQTTLDAELNAEYEESGDSFDYSKLVEAQRDGPPVQQGRSEKVIAYLQHIQKGKLIQTFGCLLALDEKSFNVIAFSENAPEMLTTVSHAVPSVDDPPRLGIGTNVRSLFSDQGATALHKALGFADVSLLNPILVQCKTSGKPFYAIVHRATGCLVVDFEPVKPTEFPATAAGALQSYKLAAKAISKIQSLPGGSMEVLCNTVVKEVFDLTGYDRVMAYKFHEDDHGEVFSEITKPGLEPYLGLHYPATDIPQAARLLFMKNKVRMICDCRARSIKVIEAEALPFDISLCGSALRAPHSCHLQYMENMNSIASLVMAVVVNENEEDDEAESEQPAQQQKKKKLWGLLVCHHESPRYVPFPLRYACEFLAQVFAVHVNREFELEKQLREKNILKMQTMLSDMLFREASPLTIVSGTPNIMDLVKCDGAALLYGGKVWRLRNAPTESQIHDIAFWLSDVHRDSTGLSTDSLHDAGYPGAAALGDMICGMAVAKINSKDILFWFRSHTAAEIRWGGAKNDPSDMDDSRRMHPRLSFKAFLEVVKMKSLPWSDYEMDAIHSLQLILRGTLNDASKPKREASLDNQIGDLKLDGLAELQAVTSEMVRLMETATVPILAVDGNGLVNGWNQKAAELTGLRVDDAIGRHILTLVEDSSVPVVQRMLYLALQGKEEKEVRFEVKTHGPKRDDGPVILVVNACASRDLHDHVVGVCFVAQDMTVHKLVMDKFTRVEGDYKAIIHNPNPLIPPIFGADEFGWCSEWNAAMTKLTGWNRDEVLDKMLLGEVFDSSNASCPLKNRDAFVSLCVLINSALAGEETEKAPFGFFDRSGKYIECLLSANRKENEGGLITGVFCFIHVASHELQHALQVQQASEQTSLKRLKAFSYMRHAINNPLSGMLYSRKALKNTDLNEEQMKQIHVGDNCHHQINKILADLDQDSITEKSSCLDLEMAEFLLQDVVVAAVSQVLITCQGKGIRISCNLPERFMKQSVYGDGVRLQQILSDFLFISVKFSPVGGSVEISSKLTKNSIGENLHLIDLELRIKHQGLGVPAELMAQMFEEDNKEQSEEGLSLLVSRNLLRLMNGDVRHLREAGVSTFIITAELASAPTAMGQ
modifications: phycocyanobilin chromophore assembled (chromophore-binding site C322)
notes: Avena sativa (oat) phytochrome A, full-length gene AsPHYA; 1129 residues by the printed construct limits (66-1129aa); Used as Pr (far-red irradiated) and Pfr (red irradiated) forms; also called AsphyA; FL-AsphyA; source: phycocyanobilin added in vitro
B2: AsphyA D422R, full length (natural protein, Avena sativa, UniProt P06593 1-1129, looked up)
chain: B1 chain with D422R
modifications: phycocyanobilin chromophore assembled
notes: Avena sativa phytochrome A, full length, with D422R; source: phycocyanobilin added in vitro
B3: AsphyA K411L, full length (natural protein, Avena sativa, UniProt P06593 1-1129, looked up)
chain: B1 chain with K411L
modifications: phycocyanobilin chromophore assembled
notes: Avena sativa phytochrome A, full length, with K411L; source: phycocyanobilin added in vitro
B4: AsphyA T418D, full length (natural protein, Avena sativa, UniProt P06593 1-1129, looked up)
chain: B1 chain with T418D
modifications: phycocyanobilin chromophore assembled
notes: Avena sativa phytochrome A, full length, with T418D; source: phycocyanobilin added in vitro
B5: GST/strep-fused Arabidopsis PIF4 (natural protein, UniProt Q8W2F3 1-430, looked up)
chain: MEHQGWSFEENYSLSTNRRSIRPQDELVELLWRDGQVVLQSQTHREQTQTQKQDHHEEALRSSTFLEDQETVSWIQYPPDEDPFEPDDFSSHFFSTMDPLQRPTSETVKPKSSPEPPQVMVKPKACPDPPPQVMPPPKFRLTNSSSGIRETEMEQYSVTTVGPSHCGSNPSQNDLDVSMSHDRSKNIEEKLNPNASSSSGGSSGCSFGKDIKEMASGRCITTDRKRKRINHTDESVSLSDAIGNKSNQRSGSNRRSRAAEVHNLSERRRRDRINERMKALQELIPHCSKTDKASILDEAIDYLKSLQLQLQVMWMGSGMAAAAASAPMMFPGVQPQQFIRQIQSPVQLPRFPVMDQSAIQNNPGLVCQNPVQNQIISDRFARYIGGFPHMQAATQMQPMEMLRFSSPAGQQSQQPSSVPTKTTDGSRLDH
notes: Arabidopsis PIF4 (NM_180050); not shown: GST, N-terminal, kept

Experiments:
K411L AsphyA mutant = target: T1, K411L AsphyA mutant (Avena sativa, UniProt P06593, K411L); assay: Binding parameters of ATP by Scatchard plot using BODIPY-FL-ATP
T1 construct: After preparing purified full-length AsphyA mutants; made in house; host or cells: Pichia pastoris GS115
Protocol: (§1) To estimate dissociation constant (Kd) and the number of binding sites (n) of ATP in AsphyA proteins, an ATP analogue BODIPY-FL-ATP (BODIPY FL 2′-(or-3′)-O-(N-(2-aminoethyl)urethane) adenosine triphosphate; Molecular Probes) was used. 0.5 μM AsphyA proteins were incubated with increasing concentration of BODIPY-FL-ATP (0.5–5 μM) for 10 min at 30 °C, and free (unbound) ATP analogue was separated from the ATP analogue-protein complex by using Amicon Ultra Centrifugal Filter with MWCO of 10,000 Da for 5 min at 4,000g. The spectrophotometric absorbance was then measured to determine the BODIPY-FL-ATP concentrations within flow-through and the complex solutions by using Shimadzu UV-1800 spectrophotometer. […] The concentrations of BODIPY-FL-ATP were also double-checked by measuring the emission intensity of BODIPY fluorophore at the excitation wavelength of 500 nm and emission wavelength of 515 nm. The fluorescence of free BODIPY-FL-ATP in the absence of any protein component was used as a linear standard curve. The Kd and n values were then calculated by a Scatchard plot of r/[BODIPY-FL-ATP]free versus r, where r is the molar ratio of [BODIPY-FL-ATP]bound to [AsphyA]total.
(§2) Supplementary Figure 12. Determination of binding parameters of ATP in AsphyA proteins. The number of binding sites (n) and dissociation constant (Kd) of ATP in AsphyA proteins were determined by Scatchard plots using an ATP analogue, BODIPY-FL-ATP (BODIPY® FL 2′-(or-3′)-O-(N-(2-aminoethyl)urethane) adenosine triphosphate). The n and Kd values were calculated from the slopes (-1/Kd) and x-axis intercepts (n) of the Scatchard plot of r/[BODIPY-FL-ATP]free versus r, where r was the molar ratio of [BODIPY-FL-ATP]bound to [AsphyA]total. The n values of full-length (FL) AsphyA and photosensory core (66-610) were both calculated at around one per polypeptide, and the Kd values were calculated at approximately 0.87 × 10^-6 M for FL-AsphyA, 0.72 × 10^-6 M for […]
(§3) level, possibly due to too low ATP binding.
(§4) (1 picture or pasted object on this page, not shown here)

[1] = target: T2, photosensory core of AsphyA (66-610) (Avena sativa, UniProt P06593); assay: as above
T2 construct: the PAS-GAF-PHY photosensory core (66–610aa) were also cloned into pPIC3.5K; made in house; host or cells: Pichia pastoris GS115
T2 sequence (P06593 66-610): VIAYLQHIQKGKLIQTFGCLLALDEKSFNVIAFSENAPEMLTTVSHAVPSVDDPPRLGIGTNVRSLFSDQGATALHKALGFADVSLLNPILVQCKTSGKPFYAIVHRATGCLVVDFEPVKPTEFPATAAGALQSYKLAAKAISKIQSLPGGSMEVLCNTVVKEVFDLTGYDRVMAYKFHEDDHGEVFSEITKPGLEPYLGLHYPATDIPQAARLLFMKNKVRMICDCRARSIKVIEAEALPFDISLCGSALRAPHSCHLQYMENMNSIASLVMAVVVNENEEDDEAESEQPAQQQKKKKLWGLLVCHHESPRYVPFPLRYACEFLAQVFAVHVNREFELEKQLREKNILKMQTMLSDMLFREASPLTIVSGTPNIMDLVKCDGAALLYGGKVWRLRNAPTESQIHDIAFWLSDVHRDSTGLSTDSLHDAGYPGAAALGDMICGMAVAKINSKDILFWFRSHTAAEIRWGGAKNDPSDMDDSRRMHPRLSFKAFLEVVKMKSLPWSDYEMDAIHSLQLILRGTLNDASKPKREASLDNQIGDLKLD
Protocol: as §1, §2, §3, §4

D422R AsphyA mutant = target: T3, D422R AsphyA mutant (Avena sativa, UniProt P06593, D422R); assay: as above; conditions: Scatchard plot with BODIPY-FL-ATP; result in words
T3 construct: After preparing purified full-length AsphyA mutants; made in house; host or cells: Pichia pastoris GS115
Protocol: as §1, §2, §3, §4

T418D AsphyA mutant = target: T4, T418D AsphyA mutant (Avena sativa, UniProt P06593, T418D); assay: as above
T4 construct: After preparing purified full-length AsphyA mutants; made in house; host or cells: Pichia pastoris GS115
Protocol: as §1, §2, §3, §4

full-length AsphyA = target: T5, full-length AsphyA (Avena sativa, UniProt P06593); assay: as above
T5 construct: Full-length phytochrome genes of AsPHYA; made in house; host or cells: Pichia pastoris GS115
T5 sequence (P06593 1-1129): B1 chain
Protocol: as §1, §2, §3, §4

[2] = target: the molecule itself; assay: SEC; size-exclusion chromatography of purified full-length AsphyA proteins; molecular masses estimated
[3] = target: B1; assay: pull-down; GST/strep-fused interacting protein (1.0 μg) held on glutathione resin, phytochrome (1.0 μg) in solution, Pr and Pfr forms both tested; 60 min at 4 °C in pull-down buffer (100 mM Tris-HCl pH 7.8, 1 mM EDTA, 150 mM NaCl, 100 μg/ml BSA); western blot with oat22 and anti-GST; conditions: both partners purified
[4] = Scatchard plot with BODIPY-FL-ATP
[5] = Scatchard plot, 0.5 μM protein, BODIPY-FL-ATP 0.5–5 μM, 10 min at 30 °C, read-out: dissociation constant (Kd) of ATP

T1 sequence (P06593 whole entry K411L): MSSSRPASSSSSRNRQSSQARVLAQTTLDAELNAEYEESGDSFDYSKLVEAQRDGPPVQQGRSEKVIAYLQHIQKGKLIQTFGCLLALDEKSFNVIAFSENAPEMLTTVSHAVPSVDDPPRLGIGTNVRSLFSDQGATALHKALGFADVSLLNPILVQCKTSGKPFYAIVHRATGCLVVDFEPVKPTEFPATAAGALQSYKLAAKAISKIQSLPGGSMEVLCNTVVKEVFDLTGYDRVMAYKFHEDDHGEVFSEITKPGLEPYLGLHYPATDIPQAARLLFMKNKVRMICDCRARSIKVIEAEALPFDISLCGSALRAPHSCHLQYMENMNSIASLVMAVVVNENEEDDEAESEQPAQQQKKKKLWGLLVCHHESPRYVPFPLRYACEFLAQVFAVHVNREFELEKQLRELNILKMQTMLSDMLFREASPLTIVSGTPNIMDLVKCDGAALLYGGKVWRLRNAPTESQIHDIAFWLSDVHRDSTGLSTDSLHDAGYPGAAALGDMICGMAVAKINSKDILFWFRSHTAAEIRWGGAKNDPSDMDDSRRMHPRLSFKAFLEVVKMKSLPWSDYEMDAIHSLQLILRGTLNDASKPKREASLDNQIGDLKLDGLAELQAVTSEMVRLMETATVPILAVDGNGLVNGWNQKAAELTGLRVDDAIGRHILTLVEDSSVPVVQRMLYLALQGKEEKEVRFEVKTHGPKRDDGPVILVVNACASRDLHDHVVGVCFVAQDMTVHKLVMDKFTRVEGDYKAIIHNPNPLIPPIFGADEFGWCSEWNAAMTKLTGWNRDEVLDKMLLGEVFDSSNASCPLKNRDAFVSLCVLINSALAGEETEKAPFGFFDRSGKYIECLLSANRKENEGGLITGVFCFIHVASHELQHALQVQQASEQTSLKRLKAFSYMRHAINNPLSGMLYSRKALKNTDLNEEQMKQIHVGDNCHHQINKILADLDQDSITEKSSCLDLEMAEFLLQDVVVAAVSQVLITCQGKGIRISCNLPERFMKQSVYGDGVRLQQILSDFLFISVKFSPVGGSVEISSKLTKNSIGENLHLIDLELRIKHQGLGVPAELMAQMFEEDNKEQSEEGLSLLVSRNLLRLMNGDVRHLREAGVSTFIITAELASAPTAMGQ
T3 sequence (P06593 whole entry D422R): as the sequence (P06593 whole entry K411L) above, with L411K, D422R counted along it
T4 sequence (P06593 whole entry T418D): as the sequence (P06593 whole entry K411L) above, with L411K, T418D counted along it

CC1=CC(C)=[N+]2C1=Cc1ccc(CCC(=O)NCCNC(=O)O[C@H]3[C@@H](O)[C@H](n4cnc5c(N)ncnc54)O[C@@H]3COP(=O)(O)OP(=O)(O)OP(=O)(O)O)n1[B-]2(F)F [BODIPY-FL-ATP, BODIPY FL 2′-(or-3′)-O-(N-(2-aminoethyl)urethane) adenosine triphosphate]
Kd (K411L AsphyA mutant): ~1320 nM | number of binding sites (n) of ATP [1, 4]: approximately one | Kd [1, 5]: 720 nM | dissociation constant (Kd) of ATP (D422R AsphyA mutant): unable to obtain the Kd value | Kd (T418D AsphyA mutant): ~4760 nM | number of binding sites (n) of ATP (full-length AsphyA; [4]): approximately one | Kd (full-length AsphyA; [5]): ~870 nM

B1
binding result [2]: binds

B2
stoichiometry N [2]: 2

B3
stoichiometry N [2]: 2

B4
stoichiometry N [2]: 2

B5
binding result [3]: binds
